Converted amounts (≈) assume the structure as drawn. Read-outs that look alike come from different tables or passages of the source. Residues, ends and D or L forms follow the SMILES beside them.
Legend:
[1] = test system: A. baumannii FADDI-AB030; assay type: cell-based, Acinetobacter baumannii
In short: (§1)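 Cation-adjusted Mueller–Hinton broth was used with the broth microdilution method to set MICs against clinical isolates. A separate run on P. aeruginosa ATCC 27853 added 10% Survanta® (v/v, 2.5 mg/mL phospholipids) to gauge lung-surfactant binding of polymyxins.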

[2] = test system: MDR clinical isolates of A. baumannii (n = 210, 200 carbapenem-resistant); assay type: cell-based, Acinetobacter baumannii
In short: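 Broth microdilution, CaMHB; MIC read as the antibacterial endpoint against ATCC reference strains and clinical isolates.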

[3] = test system: A. baumannii FADDI-AB034; assay type: cell-based, Acinetobacter baumannii
In short: as §1

[4] = test system: A. baumannii ATCC 19606; assay type: cell-based, Acinetobacter baumannii
In short: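 Each strain is tested in cation-adjusted Mueller–Hinton broth using the micro-dilution technique, and growth inhibition gives the MIC.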

[5] = test system: A. baumannii AB5075; assay type: cell-based, Acinetobacter baumannii
In short: as §1

[6] = test system: Swiss mice, kidney; assay: Nephrotoxicity in mice (kidney histopathology); assay type: in vivo, mouse; conditions: for Kidney histopathology (SQS Score): 72 mg/kg/d subcutaneously in six divided doses every 2 h, n = 3
In short: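 Female Swiss mice (7-week-old, 22–28 g) received lipopeptides in saline either s.c. at 12 mg/kg ×6 every 2 h (total 72 mg/kg, n = 3) or i.p. at 20 or 25 mg/kg ×6 every 2 h (total 120 mg/kg, n = 6; 150 mg/kg, n = 3). Right kidney collected 20 h after last dose, fixed in 10% buffered formalin (pH 7.4), histology scored blinded.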

[7] = test system: MDR clinical isolates of Enterobacterales (n = 177, 152 carbapenem-resistant); assay: Extended MIC screening, MDR clinical isolates; assay type: cell-based
Method: MICs were determined in cation-adjusted Mueller–Hinton broth (CaMHB) by the broth micro-dilution method against ATCC strains and clinical isolates. MICs in the presence of Survanta® were determined as described above against P. aeruginosa ATCC 27853. In the 100 μL of fresh CaMHB containing polymyxins, 10% Survanta® (v/v, 2.5 mg/mL phospholipids) was added. MICs in the presence and absence of Survanta® were compared to determine the effect of binding to lung surfactant on the antibacterial activity of polymyxins.

[8] = test system: HK-2 cells; assay: Transcriptomic analysis (RNA-Seq) of kidney cells; assay type: cell-based, human; conditions: for logFC, differential gene expression for all genes / log2FC / Fold Change: HK-2 RNA-Seq; for log2FC: Fig. 5f; for Fold Change: Fig. 5e; for num.of.degs: number of differentially expressed genes per peptide, Fig. 6a
Method: Human Kidney-2 (HK-2) cells (CRL-2190™, American Type Culture Collection) were treated with 100 μM colistin, F287, F319, and F365 for 24 h. Previous transcriptomic data of HK-2 cells following 24 h treatment with polymyxin B[26] were also employed for comparative bioinformatic analysis. RNA extraction was conducted as described above. Raw reads were aligned to genome GRCh38.94 (Ensembl genome database, http://ftp.ensembl.org/pub/release-94/fasta/homo_sapiens/dna/) using […] and summarized by featureCounts. Differentially expressed genes were determined using limma 3.46.0, with a combination of fold change ≥ 1.5 and FDR (by Benjamini–Hochberg algorithm) adjusted P-value ≤ 0.05 (n = 3). Key regulatory genes of HK-2 were analyzed in the context of signaling network in the Signor 2.0 database. Enrichment analysis of gene differential expression in HK-2 cells was conducted using enrichR 2.1. UpSetR 1.4.0, ComplexHeatmap 2.6.2, circlize 0.4.13 and iGraph 1.2.11 were used for data visualization. Raw data were deposited in the Short Reads Archive database under accession numbers SRR15239061-SRR15239078.

[9] = MDR clinical isolates of (n = 210, 200 carbapenem-resistant)
[10] = locus chr1 629640-630683 (ENSG00000225630 by coordinates)
[11] = locus chr1 632757-633438 (ENSG00000229344 by coordinates)

Compound: CCCCCCCC(=O)N[C@@H](CCN)C(=O)N[C@H](C(=O)N[C@@H](CN)C(=O)N[C@H]1CCNC(=O)[C@H]([C@@H](C)O)NC(=O)[C@H](CCN)NC(=O)[C@H](CCN)NC(=O)[C@H](CC)NC(=O)[C@@H](CC(C)C)NC(=O)[C@H](CCN)NC1=O)[C@@H](C)O [Lipopeptide F287] (HELM PEPTIDE1{[CCCCCCCC(=O)[*:2]].[Dab].T.[NC[C@H](N[*:1])C(=O)[*:2]].[Dab].[Dab].[dL].[Abu].[Dab].[Dab].T}$PEPTIDE1,PEPTIDE1,5:R3-11:R2$$$V2.0)
- MIC A. baumannii FADDI-AB030 ([1]; FADDI-AB030): 0.25 µg/mL (≈ 0.225 µM)
- MIC50 [2, 9]: 0.25 µg/mL (≈ 0.225 µM)
- MIC90 [2, 9]: 0.5 µg/mL (≈ 0.449 µM)
- potency relative to polymyxin B ([2]; MIC50/MIC90, A. baumannii panel): up to 8 fold
- Number of isolates ([2]; isolates with MIC 0.05 µg/mL): 0
- Number of isolates ([2]; isolates with MIC 0.125 µg/mL): 15
- Number of isolates ([2]; isolates with MIC 0.25 µg/mL): 126
- Number of isolates ([2]; isolates with MIC 0.5 µg/mL): 54
- Number of isolates ([2]; isolates with MIC 1 µg/mL): 8
- Number of isolates ([2]; isolates with MIC 2 µg/mL): 2
- Number of isolates ([2]; isolates with MIC 4 µg/mL): 0
- Number of isolates ([2]; isolates with MIC 8 µg/mL): 1
- Number of isolates ([2]; isolates with MIC 16 µg/mL): 0
- Number of isolates ([2]; isolates with MIC 32 µg/mL): 0
- Number of isolates ([2]; isolates with MIC 64 µg/mL): 1
- Number of isolates ([2]; isolates with MIC >64 µg/mL): 0
- MIC A. baumannii FADDI-AB034 ([3]; FADDI-AB034): <0.125 µg/mL
- MIC A. baumannii ATCC 19606 ([4]; ATCC 19606): 0.25 µg/mL (≈ 0.225 µM)
- MIC A. baumannii AB5075 ([5]; AB5075): 0.5 µg/mL (≈ 0.449 µM)
- Kidney histopathology (SQS Score) [6]: 0 (SQS 0 = no significant change (overall score, <1))
- Kidney histopathology, mice with the SQS score ([6]; mouse, in vivo): 3/3
- Kidney histological damage, mice with the given grade ([6]; mouse, in vivo, ip, 120 mg/kg/day): 2/6
- Number of isolates ([7]; isolates with MIC 0.05 µg/mL): 0
- Number of isolates ([7]; isolates with MIC 0.125 µg/mL): 0
- Number of isolates ([7]; isolates with MIC 0.25 µg/mL): 17
- Number of isolates ([7]; isolates with MIC 0.5 µg/mL): 131
- Number of isolates ([7]; isolates with MIC 1 µg/mL): 5
- Number of isolates ([7]; isolates with MIC 2 µg/mL): 2
- Number of isolates ([7]; isolates with MIC 4 µg/mL): 1
- Number of isolates ([7]; isolates with MIC 8 µg/mL): 2
- Number of isolates ([7]; isolates with MIC 16 µg/mL): 5
- Number of isolates ([7]; isolates with MIC 32 µg/mL): 7
- Number of isolates ([7]; isolates with MIC 64 µg/mL): 3
- Number of isolates ([7]; isolates with MIC >64 µg/mL): 4
- logFC, differential gene expression for all genes ([8]; Geneid ENSG00000223972): -1.073
- logFC, differential gene expression for all genes ([8]; Geneid ENSG00000227232): -0.08434
- logFC, differential gene expression for all genes ([8]; Geneid ENSG00000233750): -0.6124
- logFC, differential gene expression for all genes ([8]; Geneid ENSG00000278267): 0.2137
- log2FC ([8]; gene ENSG00000017483 SLC38A5): 0.6808
- log2FC ([8]; gene ENSG00000023445 BIRC3): -0.3448
- log2FC ([8]; gene ENSG00000056558 TRAF1): 0.757
- log2FC ([8]; gene ENSG00000066468 FGFR2): -1.141
- Fold Change ([8]; locus chr1 629062-629433 (ENSG00000225972 by coordinates)): 0.9117
- Fold Change [8, 10]: 0.9406
- num.of.degs [8]: 1076

Compound: CCCCCCCC(=O)N[C@@H](CCN)C(=O)N[C@H](C(=O)N[C@@H](CCN)C(=O)N[C@H]1CCNC(=O)[C@H]([C@@H](C)O)NC(=O)[C@H](CCN)NC(=O)[C@H](CCN)NC(=O)[C@H](CC)NC(=O)[C@@H](CC(C)C)NC(=O)[C@H](CCN)NC1=O)[C@@H](C)O [Lipopeptide F319] (HELM PEPTIDE1{[CCCCCCCC(=O)[*:2]].[Dab].T.[Dab].[Dab].[Dab].[dL].[Abu].[Dab].[Dab].T}$PEPTIDE1,PEPTIDE1,5:R3-11:R2$$$V2.0)
- MIC A. baumannii FADDI-AB030 ([1]; FADDI-AB030): 0.5 µg/mL (≈ 0.443 µM)
- MIC A. baumannii FADDI-AB034 ([3]; FADDI-AB034): <0.125 µg/mL
- MIC A. baumannii ATCC 19606 ([4]; ATCC 19606): 0.5 µg/mL (≈ 0.443 µM)
- Kidney histopathology (SQS Score) [6]: +1 (SQS + 1 = mild damage (overall score, 1 to <15))
- Kidney histopathology, mice with the SQS score ([6]; mouse, in vivo): 1/3
- logFC, differential gene expression for all genes ([8]; Geneid ENSG00000223972): -0.1551
- logFC, differential gene expression for all genes ([8]; Geneid ENSG00000227232): -0.02116
- logFC, differential gene expression for all genes ([8]; Geneid ENSG00000233750): -0.4424
- logFC, differential gene expression for all genes ([8]; Geneid ENSG00000278267): 0.1872
- log2FC ([8]; gene ENSG00000017483 SLC38A5): 0.557
- log2FC ([8]; gene ENSG00000023445 BIRC3): -0.6344
- log2FC ([8]; gene ENSG00000056558 TRAF1): 0.7378
- log2FC ([8]; gene ENSG00000066468 FGFR2): -1.084
- Fold Change [8, 10]: 0.3467
- Fold Change [8, 11]: 0.6059
- num.of.degs [8]: 763

Compound: Colistin [reference compound]
- MIC A. baumannii FADDI-AB030 ([1]; carbapenem-resistant isolate): 0.5 µg/mL
- MIC A. baumannii FADDI-AB034 ([3]; carbapenem-resistant isolate): 0.5 µg/mL
- MIC A. baumannii ATCC 19606 [4]: 1 µg/mL
- MIC A. baumannii AB5075 [5]: 0.5 µg/mL
- Kidney histopathology (SQS Score) [6]: +5 (SQS + 5 = severe damage (overall score, >60))
- Kidney histopathology, mice with the SQS score ([6]; mouse, in vivo): 3/3
- logFC, differential gene expression for all genes ([8]; Geneid ENSG00000223972): -0.6712
- logFC, differential gene expression for all genes ([8]; Geneid ENSG00000227232): -0.1985
- logFC, differential gene expression for all genes ([8]; Geneid ENSG00000233750): -0.899
- logFC, differential gene expression for all genes ([8]; Geneid ENSG00000278267): -0.3433
- log2FC ([8]; gene ENSG00000017483 SLC38A5): 0.7893
- log2FC ([8]; gene ENSG00000023445 BIRC3): -0.6239
- log2FC ([8]; gene ENSG00000056558 TRAF1): 0.6268
- log2FC ([8]; gene ENSG00000066468 FGFR2): -1.3101
- Fold Change [8, 10]: 0.2606
- Fold Change [8, 11]: 0.2186
- num.of.degs [8]: 1282

Reference: PMC8956739, “A synthetic lipopeptide targeting top-priority multidrug-resistant Gram-negative pathogens” (Nature Communications, 2022)
